Measured values: ChEMBL document CHEMBL1759920, “C20-trifluoro-5-oxo-ETE: a metabolically stable 5-oxo-ETE derivative” (Bioorg Med Chem Lett, 2011)
Calls of active or inactive are those of the source. The rule behind the calls is not given here.

Key:
Oxoeicosanoid receptor 1 [1] = target: T1, Oxoeicosanoid receptor 1 (Homo sapiens, UniProt Q8TDS5); test: Desensitization of 5-oxo-ETE receptor in indo-1-labeled human neutrophils assessed as inhibition of 5-oxo-ETE-induced calcium mobilization; assay type: functional
T1 sequence (Q8TDS5 whole entry): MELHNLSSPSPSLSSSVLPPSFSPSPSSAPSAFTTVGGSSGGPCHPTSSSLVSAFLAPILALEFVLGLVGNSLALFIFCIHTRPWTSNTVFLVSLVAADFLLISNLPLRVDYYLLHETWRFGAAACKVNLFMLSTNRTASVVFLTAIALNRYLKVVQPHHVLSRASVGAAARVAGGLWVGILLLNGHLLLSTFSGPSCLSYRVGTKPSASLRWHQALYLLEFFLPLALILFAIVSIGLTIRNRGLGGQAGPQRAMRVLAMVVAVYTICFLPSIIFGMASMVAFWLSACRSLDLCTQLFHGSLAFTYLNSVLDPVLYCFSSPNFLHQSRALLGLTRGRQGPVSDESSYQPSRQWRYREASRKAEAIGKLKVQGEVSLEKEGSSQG

Neutrophil [2] = test: Induction of intracellular calcium level in indo-1-labeled human neutrophils cells assessed as calcium mobilization; assay type: functional, cell-based
Oxoeicosanoid receptor 1 [3] = target: T1, Oxoeicosanoid receptor 1; test: Agonist activity at 5-oxo-ETE receptor in indo-1-labeled human neutrophils assessed as stimulation intracellular calcium level at 100 nM followed by 5-oxo-ETE addition at 2.5 mins in presence of digitonin added at 3.5 mins; assay type: functional, cell-based
Neutrophil [4] = test: Induction of intracellular calcium level in indo-1-labeled human neutrophils cells assessed as calcium mobilization relative to 5-oxo-ETE; assay type: functional

Structure (SMILES): CCCCC/C=C\C/C=C\C/C=C\C=C\C(=O)CCCC(=O)O [5-OXO-ETE]
- IC50 (Oxoeicosanoid receptor 1 [1]): 3 nM
- EC50 (Neutrophil [2]): 4 nM

Structure (SMILES): O=C(O)CCCC(=O)/C=C/C=C\C/C=C\C/C=C\CCCCC(F)(F)F
- Activity (Oxoeicosanoid receptor 1 [3]): Active
- IC50 (Oxoeicosanoid receptor 1 [1]): 7.5 nM
- Activity (Neutrophil [4]): 50%
